One compound from BindingDB's records for PubMed 35814933 (Nankai University, 2022) can be followed below.

In test [1] the target is Cyclin-dependent kinase 7 (Homo sapiens, UniProt P50613). Put plainly: Inhibition of CDK7 (unknown origin).
Test [2] addresses Cyclin-dependent kinase 5 (Homo sapiens, UniProt Q00535). Put plainly: Inhibition of CDK5 (unknown origin).

Usually IC50 stands for the midpoint of a concentration-inhibition curve.

Cyclin-dependent kinase 5, sequence (Q00535 whole entry): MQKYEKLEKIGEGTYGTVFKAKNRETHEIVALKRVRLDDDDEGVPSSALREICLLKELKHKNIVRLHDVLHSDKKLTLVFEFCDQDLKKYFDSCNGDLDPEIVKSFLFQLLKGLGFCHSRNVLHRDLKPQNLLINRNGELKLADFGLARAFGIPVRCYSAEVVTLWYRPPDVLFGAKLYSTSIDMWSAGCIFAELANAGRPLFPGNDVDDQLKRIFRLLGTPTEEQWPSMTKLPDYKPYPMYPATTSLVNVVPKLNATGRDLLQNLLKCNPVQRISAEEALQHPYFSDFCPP
Cyclin-dependent kinase 7, sequence (P50613 whole entry): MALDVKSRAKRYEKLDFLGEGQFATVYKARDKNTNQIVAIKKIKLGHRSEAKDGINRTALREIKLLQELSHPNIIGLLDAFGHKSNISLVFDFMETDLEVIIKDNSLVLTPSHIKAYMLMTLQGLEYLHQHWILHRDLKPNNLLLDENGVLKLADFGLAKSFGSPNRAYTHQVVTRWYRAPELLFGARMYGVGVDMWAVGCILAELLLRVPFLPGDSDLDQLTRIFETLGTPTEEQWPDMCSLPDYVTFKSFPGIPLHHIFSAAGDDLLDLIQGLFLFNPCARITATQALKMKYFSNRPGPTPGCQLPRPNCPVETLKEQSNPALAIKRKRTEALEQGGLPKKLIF

With `CC[C@H](Nc1nc(NCc2cnc(C)cc2C)c2ncn(C(C)C)c2n1)[C@@H](C)O` [US8592581, 1], the IC50 came to 193 nM in test [1] and 21 nM in test [2].
